# What was measured:
# [1] = system: 6X-CRE-β-galactosidase CREB reporter gene in PC12 cells; test: CREB reporter gene assay; assay type: cell-based; settings: for effect on forskolin induction of the CREB reporter gene: in the presence of forskolin (10 μM), 4 hr, library compounds 20 μM
# Grn (granulin) = settings: ref Cenik et al., 2011; cited from earlier work
# [2] = system: Egr1-EGFP reporter gene in primary cultured cortical neurons; test: Egr1 reporter gene assay; assay type: cell-based, mouse; settings: 24 hour treatments
# [3] = system: mouse forebrain primary cultured neurons; test: Transcriptome profiling; assay type: cell-based; settings: 1 μM, 24 hrs
# recombinant HDAC9 = recombinant HDAC9 (Homo sapiens, UniProt Q9UKV0); test: In vitro HDAC enzymatic assay, HDAC9; settings: read-out: IC50 for inhibition of enzymatic activity of HDAC9; Class IIa
# Chain of recombinant HDAC9 (Q9UKV0 whole entry): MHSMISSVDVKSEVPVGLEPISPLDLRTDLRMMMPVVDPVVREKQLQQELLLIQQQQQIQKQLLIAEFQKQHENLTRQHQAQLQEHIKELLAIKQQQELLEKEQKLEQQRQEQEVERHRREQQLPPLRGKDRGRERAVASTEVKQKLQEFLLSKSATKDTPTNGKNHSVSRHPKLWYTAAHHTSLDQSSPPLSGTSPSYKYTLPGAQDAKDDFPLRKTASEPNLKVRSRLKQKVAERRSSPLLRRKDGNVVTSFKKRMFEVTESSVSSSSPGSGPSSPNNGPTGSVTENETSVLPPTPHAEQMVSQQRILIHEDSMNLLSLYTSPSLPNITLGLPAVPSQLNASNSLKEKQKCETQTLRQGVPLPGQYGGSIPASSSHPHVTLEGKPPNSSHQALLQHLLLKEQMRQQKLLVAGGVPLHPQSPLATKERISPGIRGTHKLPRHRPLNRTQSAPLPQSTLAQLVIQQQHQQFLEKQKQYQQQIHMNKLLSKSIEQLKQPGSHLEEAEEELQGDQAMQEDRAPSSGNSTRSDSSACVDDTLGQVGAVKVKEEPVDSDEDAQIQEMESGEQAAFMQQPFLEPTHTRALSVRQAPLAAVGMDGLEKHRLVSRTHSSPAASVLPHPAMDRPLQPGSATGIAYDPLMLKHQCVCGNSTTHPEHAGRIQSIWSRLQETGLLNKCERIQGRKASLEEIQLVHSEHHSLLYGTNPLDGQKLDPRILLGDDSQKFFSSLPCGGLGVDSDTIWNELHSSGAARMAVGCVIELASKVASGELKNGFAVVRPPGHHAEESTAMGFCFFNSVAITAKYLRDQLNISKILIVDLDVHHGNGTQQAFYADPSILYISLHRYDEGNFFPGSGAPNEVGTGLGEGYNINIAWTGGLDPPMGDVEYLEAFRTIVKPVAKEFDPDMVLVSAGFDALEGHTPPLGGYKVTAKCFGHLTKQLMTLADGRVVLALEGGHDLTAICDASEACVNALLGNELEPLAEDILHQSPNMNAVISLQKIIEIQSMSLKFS
# C57BL/6J mice = test: Open field locomotion prior to footshock; assay type: in vivo, mouse; settings: 25 mg/kg IP daily, 10 days
# [4] = system: mouse primary forebrain cultures; test: Synapsin I punctae imaging along Map2-positive dendrites; assay type: cell-based; settings: 1 μM, 24 hr
# recombinant HDAC1 [5] = biological target: T1, recombinant HDAC1 (Homo sapiens, UniProt Q13547); test: biochemical
# T1 sequence (Q13547 whole entry): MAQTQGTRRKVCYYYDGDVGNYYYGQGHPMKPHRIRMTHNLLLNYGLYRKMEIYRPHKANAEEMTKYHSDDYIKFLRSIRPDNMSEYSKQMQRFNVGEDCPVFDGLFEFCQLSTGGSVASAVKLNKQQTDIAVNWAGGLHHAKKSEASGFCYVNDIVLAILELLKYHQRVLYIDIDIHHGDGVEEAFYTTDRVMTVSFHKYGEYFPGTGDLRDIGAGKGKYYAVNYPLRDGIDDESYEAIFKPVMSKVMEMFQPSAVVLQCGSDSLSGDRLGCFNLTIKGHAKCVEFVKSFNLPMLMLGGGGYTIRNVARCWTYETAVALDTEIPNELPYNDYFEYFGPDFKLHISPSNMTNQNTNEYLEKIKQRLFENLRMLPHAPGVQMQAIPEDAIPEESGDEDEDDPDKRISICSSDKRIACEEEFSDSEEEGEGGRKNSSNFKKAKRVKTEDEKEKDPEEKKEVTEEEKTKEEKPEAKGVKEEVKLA
# [6] = system: AcH4K12 in mouse primary cultured forebrain neurons; test: Neuronal histone acetylation immunofluorescence assay, AcH4K12; settings: AcH4K12 and AcH3K9; more potent than SAHA
# recombinant HDAC1 [7] = biological target: T1, recombinant HDAC1; settings: more potent than SAHA
# recombinant HDAC4 = recombinant HDAC4 (Homo sapiens, UniProt P56524); test: In vitro HDAC enzymatic assay, HDAC4; settings: read-out: IC50 for inhibition of enzymatic activity of HDAC4; Class IIa
# Chain of recombinant HDAC4 (P56524 whole entry): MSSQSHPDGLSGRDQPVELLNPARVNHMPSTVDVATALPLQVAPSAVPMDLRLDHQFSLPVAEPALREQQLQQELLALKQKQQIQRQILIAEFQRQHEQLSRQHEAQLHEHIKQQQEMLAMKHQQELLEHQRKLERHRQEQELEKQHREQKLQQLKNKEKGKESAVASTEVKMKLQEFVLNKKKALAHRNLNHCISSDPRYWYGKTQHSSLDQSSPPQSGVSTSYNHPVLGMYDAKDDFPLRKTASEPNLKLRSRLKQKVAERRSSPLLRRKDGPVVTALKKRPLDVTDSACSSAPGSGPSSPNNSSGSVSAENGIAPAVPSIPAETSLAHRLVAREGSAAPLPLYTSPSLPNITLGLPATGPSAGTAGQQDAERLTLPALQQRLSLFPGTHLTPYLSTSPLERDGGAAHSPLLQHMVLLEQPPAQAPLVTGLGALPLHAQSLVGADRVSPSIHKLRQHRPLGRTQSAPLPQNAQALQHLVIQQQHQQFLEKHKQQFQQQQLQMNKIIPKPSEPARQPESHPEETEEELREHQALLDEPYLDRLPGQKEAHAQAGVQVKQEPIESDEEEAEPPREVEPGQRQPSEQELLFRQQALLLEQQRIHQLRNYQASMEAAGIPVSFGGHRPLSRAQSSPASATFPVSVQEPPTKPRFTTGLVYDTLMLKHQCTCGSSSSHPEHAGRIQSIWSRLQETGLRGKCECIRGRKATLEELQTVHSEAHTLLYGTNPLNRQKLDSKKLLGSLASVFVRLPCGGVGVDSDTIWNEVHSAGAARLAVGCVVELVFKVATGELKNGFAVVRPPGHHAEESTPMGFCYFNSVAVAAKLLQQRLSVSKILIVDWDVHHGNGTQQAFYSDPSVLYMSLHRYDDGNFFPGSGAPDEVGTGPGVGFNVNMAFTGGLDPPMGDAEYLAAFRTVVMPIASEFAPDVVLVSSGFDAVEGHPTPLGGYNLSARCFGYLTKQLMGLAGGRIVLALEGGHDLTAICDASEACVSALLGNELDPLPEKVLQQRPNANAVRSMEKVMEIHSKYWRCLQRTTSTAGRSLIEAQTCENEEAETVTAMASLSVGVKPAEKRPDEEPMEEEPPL
# recombinant HDAC2 = recombinant HDAC2 (Homo sapiens, UniProt Q92769); test: In vitro HDAC enzymatic assay, HDAC2
# Chain of recombinant HDAC2 (Q92769 whole entry): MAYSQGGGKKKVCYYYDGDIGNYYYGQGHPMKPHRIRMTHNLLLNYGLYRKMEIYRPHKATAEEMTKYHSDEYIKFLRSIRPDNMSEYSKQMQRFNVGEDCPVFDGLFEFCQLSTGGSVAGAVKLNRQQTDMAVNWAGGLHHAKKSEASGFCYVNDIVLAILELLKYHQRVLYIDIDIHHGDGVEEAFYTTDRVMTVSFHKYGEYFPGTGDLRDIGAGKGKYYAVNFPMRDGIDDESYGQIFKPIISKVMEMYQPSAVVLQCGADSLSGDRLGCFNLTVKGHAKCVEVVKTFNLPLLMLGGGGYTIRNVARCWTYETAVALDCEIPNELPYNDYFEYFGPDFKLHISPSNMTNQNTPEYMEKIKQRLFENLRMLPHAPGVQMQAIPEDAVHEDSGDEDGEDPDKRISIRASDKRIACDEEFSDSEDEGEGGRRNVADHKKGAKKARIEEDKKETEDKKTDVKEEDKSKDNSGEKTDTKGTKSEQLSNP
# [8] = system: Homer1 expression in cortical neurons; test: NanoString nCounter gene expression assay; assay type: cell-based, mouse; settings: crebinostat 1 μM 24 hours, BDNF 20 ng/ml last 6 hours
# [9] = system: hippocampal acetylation of H4K12 and H3K9; test: Western blot of hippocampal histone acetylation after IP injection; assay type: in vivo, mouse; settings: one hour after IP injection
# [10] = Crebinostat concentration in brain and plasma; assay type: in vivo, mouse; settings: single IP dose 25 mg/kg
# recombinant HDAC3 = recombinant HDAC3 (Homo sapiens, UniProt O15379); test: In vitro HDAC enzymatic assay, HDAC3
# Chain of recombinant HDAC3 (O15379 whole entry): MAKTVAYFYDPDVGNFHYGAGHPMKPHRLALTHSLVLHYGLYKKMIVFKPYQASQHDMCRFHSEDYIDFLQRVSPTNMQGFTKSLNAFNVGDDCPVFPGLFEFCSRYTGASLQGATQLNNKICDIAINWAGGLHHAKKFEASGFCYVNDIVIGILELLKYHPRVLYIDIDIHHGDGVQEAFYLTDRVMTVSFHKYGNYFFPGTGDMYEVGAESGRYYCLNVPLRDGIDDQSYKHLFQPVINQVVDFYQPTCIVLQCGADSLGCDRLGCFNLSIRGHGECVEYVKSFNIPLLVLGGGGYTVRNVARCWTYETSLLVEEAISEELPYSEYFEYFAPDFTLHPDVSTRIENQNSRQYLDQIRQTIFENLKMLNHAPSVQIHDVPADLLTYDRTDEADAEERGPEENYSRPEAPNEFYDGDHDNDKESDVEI
# Chain of recombinant HDAC3 (Q9Y618 395-489 partner limits assumed): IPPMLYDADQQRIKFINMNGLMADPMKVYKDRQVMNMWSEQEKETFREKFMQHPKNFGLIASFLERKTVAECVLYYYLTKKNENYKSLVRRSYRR
# recombinant HDAC6 = biological target: T2, recombinant HDAC6 (Homo sapiens, UniProt Q9UBN7); test: In vitro HDAC enzymatic assay, HDAC6
# T2 sequence (Q9UBN7 1-1215): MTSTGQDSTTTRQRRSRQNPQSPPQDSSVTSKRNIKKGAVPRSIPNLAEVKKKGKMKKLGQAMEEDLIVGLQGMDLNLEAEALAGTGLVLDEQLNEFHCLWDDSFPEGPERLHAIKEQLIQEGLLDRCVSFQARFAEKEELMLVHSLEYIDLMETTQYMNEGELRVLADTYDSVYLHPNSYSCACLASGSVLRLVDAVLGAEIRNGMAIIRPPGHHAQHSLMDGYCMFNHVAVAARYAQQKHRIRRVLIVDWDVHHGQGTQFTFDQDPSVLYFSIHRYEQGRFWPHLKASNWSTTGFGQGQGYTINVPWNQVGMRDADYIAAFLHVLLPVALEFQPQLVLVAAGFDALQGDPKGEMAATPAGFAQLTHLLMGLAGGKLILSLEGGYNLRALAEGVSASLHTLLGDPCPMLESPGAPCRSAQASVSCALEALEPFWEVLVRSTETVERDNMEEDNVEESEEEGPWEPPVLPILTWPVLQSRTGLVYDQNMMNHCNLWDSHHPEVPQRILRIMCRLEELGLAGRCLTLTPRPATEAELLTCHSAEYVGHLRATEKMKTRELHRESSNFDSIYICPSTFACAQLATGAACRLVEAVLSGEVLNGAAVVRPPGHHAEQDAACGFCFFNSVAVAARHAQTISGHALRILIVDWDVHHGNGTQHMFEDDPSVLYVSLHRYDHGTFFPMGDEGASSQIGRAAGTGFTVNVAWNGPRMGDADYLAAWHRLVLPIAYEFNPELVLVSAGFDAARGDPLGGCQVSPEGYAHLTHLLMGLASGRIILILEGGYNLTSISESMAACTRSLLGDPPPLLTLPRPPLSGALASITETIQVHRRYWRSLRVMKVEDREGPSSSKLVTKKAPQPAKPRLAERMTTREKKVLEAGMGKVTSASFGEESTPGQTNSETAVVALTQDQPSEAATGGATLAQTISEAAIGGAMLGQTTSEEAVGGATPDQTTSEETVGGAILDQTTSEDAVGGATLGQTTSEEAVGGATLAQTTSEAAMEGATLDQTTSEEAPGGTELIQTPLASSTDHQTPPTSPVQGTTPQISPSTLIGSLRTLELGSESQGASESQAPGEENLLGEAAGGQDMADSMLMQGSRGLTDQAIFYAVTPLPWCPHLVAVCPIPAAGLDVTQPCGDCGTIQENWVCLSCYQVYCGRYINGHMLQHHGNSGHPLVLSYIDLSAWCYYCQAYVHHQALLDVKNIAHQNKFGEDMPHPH
# recombinant HDAC5 = recombinant HDAC5 (Homo sapiens, UniProt Q9UQL6); test: In vitro HDAC enzymatic assay, HDAC5; settings: read-out: IC50 for inhibition of enzymatic activity of HDAC5; Class IIa
# Chain of recombinant HDAC5 (Q9UQL6 whole entry): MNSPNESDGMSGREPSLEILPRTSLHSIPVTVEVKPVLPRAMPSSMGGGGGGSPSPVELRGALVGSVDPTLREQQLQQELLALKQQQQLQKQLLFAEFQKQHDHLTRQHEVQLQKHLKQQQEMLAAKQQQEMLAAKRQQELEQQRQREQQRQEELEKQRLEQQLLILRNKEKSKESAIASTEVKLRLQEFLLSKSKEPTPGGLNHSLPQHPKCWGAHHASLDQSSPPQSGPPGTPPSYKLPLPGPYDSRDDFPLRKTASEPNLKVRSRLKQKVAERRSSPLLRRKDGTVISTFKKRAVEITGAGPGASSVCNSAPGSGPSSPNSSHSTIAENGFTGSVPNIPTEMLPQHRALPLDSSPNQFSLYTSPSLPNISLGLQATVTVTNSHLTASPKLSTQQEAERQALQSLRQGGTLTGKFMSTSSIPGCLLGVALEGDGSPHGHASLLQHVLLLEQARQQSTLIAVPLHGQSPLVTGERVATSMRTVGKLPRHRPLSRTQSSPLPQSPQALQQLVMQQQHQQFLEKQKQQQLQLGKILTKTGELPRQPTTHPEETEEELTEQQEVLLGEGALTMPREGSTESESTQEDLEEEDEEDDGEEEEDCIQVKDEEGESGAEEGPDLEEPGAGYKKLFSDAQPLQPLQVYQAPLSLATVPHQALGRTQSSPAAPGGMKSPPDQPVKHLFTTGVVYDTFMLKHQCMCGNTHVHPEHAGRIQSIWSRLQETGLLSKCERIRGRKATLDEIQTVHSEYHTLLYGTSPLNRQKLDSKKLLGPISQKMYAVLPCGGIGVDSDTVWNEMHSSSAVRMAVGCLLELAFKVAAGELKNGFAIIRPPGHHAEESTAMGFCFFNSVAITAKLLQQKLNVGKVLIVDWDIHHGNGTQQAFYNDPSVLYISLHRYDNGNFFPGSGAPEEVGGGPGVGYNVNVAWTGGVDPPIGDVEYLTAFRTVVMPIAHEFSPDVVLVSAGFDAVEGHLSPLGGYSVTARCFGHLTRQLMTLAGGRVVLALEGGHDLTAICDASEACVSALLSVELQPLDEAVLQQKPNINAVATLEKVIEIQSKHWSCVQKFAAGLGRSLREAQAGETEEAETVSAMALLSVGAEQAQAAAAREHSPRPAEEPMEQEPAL
# [11] = system: acetylated histone H3, H4, H2A, H2B in cultured primary mouse neurons; test: Western blotting of neuronal histone acetylation; assay type: cell-based; settings: 1 μM, 24 hrs
# [12] = system: AcH4K12 in mouse primary forebrain cultures; test: High resolution neuronal histone acetylation imaging; assay type: cell-based; settings: 1 μM, 24 hrs
# [13] = system: mouse forebrain primary cultured neurons; test: Quantitative RT-PCR assays of gene expression; assay type: cell-based; settings: 1 μM
# [14] = system: mouse primary forebrain cultures; test: Toxicity in primary neuronal cultures on coverslips; assay type: cell-based; settings: 1 μM, 24 hrs
# recombinant HDAC7 = biological target: T3, recombinant HDAC7 (Homo sapiens, UniProt Q8WUI4); test: In vitro HDAC enzymatic assay, HDAC7; settings: read-out: IC50 for inhibition of enzymatic activity of HDAC7; Class IIa
# T3 sequence (Q8WUI4 1-952): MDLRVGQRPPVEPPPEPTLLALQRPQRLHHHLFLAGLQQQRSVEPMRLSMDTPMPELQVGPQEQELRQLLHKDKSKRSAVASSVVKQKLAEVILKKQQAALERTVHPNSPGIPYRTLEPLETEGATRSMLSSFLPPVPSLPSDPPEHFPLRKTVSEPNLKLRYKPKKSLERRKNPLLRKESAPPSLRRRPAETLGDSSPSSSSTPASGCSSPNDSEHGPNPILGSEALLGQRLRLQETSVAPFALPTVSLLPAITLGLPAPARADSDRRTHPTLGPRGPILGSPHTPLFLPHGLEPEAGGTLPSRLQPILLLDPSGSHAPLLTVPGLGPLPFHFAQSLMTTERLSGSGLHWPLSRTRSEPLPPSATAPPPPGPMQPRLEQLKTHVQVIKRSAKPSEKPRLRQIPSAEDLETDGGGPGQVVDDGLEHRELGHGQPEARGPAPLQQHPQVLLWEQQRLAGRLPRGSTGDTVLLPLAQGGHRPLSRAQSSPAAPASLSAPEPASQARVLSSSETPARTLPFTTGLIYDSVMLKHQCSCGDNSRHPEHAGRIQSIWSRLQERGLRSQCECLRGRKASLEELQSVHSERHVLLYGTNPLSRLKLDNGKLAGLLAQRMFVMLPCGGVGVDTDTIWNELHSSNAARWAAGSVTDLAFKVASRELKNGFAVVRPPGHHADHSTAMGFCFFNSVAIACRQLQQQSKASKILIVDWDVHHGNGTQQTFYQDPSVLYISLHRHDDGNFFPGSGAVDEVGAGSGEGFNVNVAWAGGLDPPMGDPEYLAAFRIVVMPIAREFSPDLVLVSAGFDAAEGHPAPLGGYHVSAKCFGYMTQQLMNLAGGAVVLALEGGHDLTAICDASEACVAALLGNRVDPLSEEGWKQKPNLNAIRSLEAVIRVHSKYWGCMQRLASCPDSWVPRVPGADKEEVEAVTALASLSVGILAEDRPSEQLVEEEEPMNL
smiles,measurement,setting,value
CC(/C=C/C(=O)NO)=C\[C@@H](C)C(=O)c1ccc(N(C)C)cc1 [trichostatin A],effect on forskolin induction of the CREB reporter gene,[1],further enhanced
"O=C(CCCCCCC(=O)Nc1ccccc1)NO [SAHA, suberoylanilide hydroxamic acid, reference compound]",expression of Grn (granulin) in cell lines,Grn (granulin),upregulate
same,Egr1-EGFP reporter gene activity,[2],induced
C=C[C@@]1(C)CC(=O)[C@]2(O)[C@@]3(C)[C@@H](O)CCC(C)(C)[C@@H]3[C@H](O)[C@H](OC(C)=O)[C@@]2(C)O1 [forskolin],induction of the CREB reporter gene,"[1]; 10 μM, 4 hours, PC12 cells",~ 4 fold
"O=C(CCCCCC(=O)NN=Cc1ccc(-c2ccccc2)cc1)NO [crebinostat, 7-(2-([1,1′-biphenyl]-4-ylmethylene)hydrazinyl)-N-hydroxy-7-oxoheptanamide]",Fold upregulation (Illumina array) Aldh2,[3],2.0 fold
same,Fold upregulation (Illumina array) Sdcbp,[3],2.2 fold
same,IC50,recombinant HDAC9,> 2000 nM
same,exploratory activity immediately prior to foot shock versus vehicle,C57BL/6J mice,no significant differences
same,increase in dendritic synapsin I punctae density,[4],~2 fold
same,synapsin I punctae size or staining intensity,[4],did not alter
same,total dendrite length per image,[4],did not alter
same,effect on forskolin induction of the CREB reporter gene,[1],strong activation of the reporter only in the presence of forskolin
same,Egr1-EGFP reporter gene activity,[2],induced
same,IC50,recombinant HDAC1 [5],0.7 ± 0.04 nM
same,potency relative to SAHA at inducing histone acetylation in neurons,[6],~ 6 fold
same,potency relative to SAHA for inhibition of class I HDACs 1-3,recombinant HDAC1 [7],approximately 10 fold
same,IC50,recombinant HDAC4,> 2000 nM
same,IC50,recombinant HDAC2,1 ± 0.08 nM
same,regulation of Homer1 expression together with BDNF stimulation,[8],synergistic
same,total hippocampal acetylation of H4K12 and H3K9,[9],not statistically significant
same,half-life,"[10]; C57BL/6, mouse, brain, ip, 25 mg/kg, half-life (T1/2), mouse brain",43.2 min
same,time of Cmax in brain post-injection,[10]; mouse,30 min
same,IC50,recombinant HDAC3,2 ± 0.3 nM
same,IC50,recombinant HDAC6,9.3 ± 0.6 nM
same,IC50,recombinant HDAC5,> 2000 nM
same,"acetylation of histone H3, H4, H2A and H2B (western blot)",[11],strong increases
same,histone acetylation (AcH4K12) in cultures on glass coverslips,[12],robust increase
same,Grn mRNA expression,[13]; 24 hours,upregulate
same,Hspa1b (Hsp70) mRNA expression,[13]; 24 hours,upregulated
same,Mapt mRNA expression,[13]; 24 hours,downregulated
same,Bdnf mRNA expression,"[13]; 24 hours, Bdnf transcript IV",upregulated
same,Fold upregulation (RT-PCR) Aldh2,"[13]; 24 hrs, normalized to Gapdh",2.3 fold
same,Fold upregulation (RT-PCR) Egr1,"[13]; 24 hrs, normalized to Gapdh",3.9 fold
same,Fold upregulation (RT-PCR) Pik3c3,"[13]; 24 hrs, normalized to Gapdh",2.2 fold
same,Fold upregulation (RT-PCR) Sdcbp,"[13]; 24 hrs, normalized to Gapdh",2.3 fold
same,toxicity in neuronal cultures,[14],no detectable toxicity
same,IC50,recombinant HDAC7,> 2000 nM

# Reference: paper PMC3447535 (Neuropharmacology, 2012)
